Reference: ChEMBL document CHEMBL1140977, “Synthesis and screening of a cyclic peptide library: discovery of small-molecule ligands against human prolactin receptor” (Bioorg Med Chem, 2009)
The source made the active and inactive calls. No cut-off for these calls is given here. Square brackets hold non-standard residues; d marks the D form. Peptide text beside a SMILES is read from it. NMeL = CN[C@@H](CC(C)C)C(=O)O

Experiments:
Prolactin receptor = target: T1, Prolactin receptor (Homo sapiens, UniProt P16471); test: (§1) Binding affinity to human prolactin receptor extracellular binding domain by surface plasmon […]
T1 sequence (P16471 whole entry): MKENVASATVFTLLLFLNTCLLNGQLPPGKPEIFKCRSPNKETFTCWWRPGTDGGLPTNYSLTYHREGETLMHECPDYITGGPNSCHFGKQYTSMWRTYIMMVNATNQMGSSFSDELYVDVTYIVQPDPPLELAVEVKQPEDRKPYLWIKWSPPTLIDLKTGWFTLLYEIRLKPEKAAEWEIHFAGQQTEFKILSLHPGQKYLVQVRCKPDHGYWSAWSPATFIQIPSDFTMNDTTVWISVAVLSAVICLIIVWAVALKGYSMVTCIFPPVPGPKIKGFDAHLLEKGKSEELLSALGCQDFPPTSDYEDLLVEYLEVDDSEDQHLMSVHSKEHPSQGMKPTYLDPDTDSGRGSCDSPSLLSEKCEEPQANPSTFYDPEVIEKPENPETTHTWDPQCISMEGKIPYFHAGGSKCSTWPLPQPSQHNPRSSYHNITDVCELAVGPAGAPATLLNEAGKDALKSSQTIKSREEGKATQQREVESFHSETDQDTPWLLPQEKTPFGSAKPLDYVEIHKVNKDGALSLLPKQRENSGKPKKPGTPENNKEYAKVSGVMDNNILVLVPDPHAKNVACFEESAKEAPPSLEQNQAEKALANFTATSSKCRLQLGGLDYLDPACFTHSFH

[1] = target: T2, Prolactin receptor (Homo sapiens) (UniProt P16471); test: as §1
T2 sequence (whole entry): T1 sequence (P16471 whole entry)

| Compound | Kd (Prolactin receptor) [nM] | Activity [1] |
| --- | --- | --- |
| CC(C)C[C@H]1NC(=O)[C@@H](C)NC(=O)[C@H](CCC(=O)O)NC(=O)[C@H](C(C)C)NC(=O)[C@H](CCCNC(=N)N)NC(=O)[C@H](Cc2ccc(O)cc2)NC(=O)[C@H](CO)NC(=O)[C@H](Cc2ccc(O)cc2)NC1=O | 3000 |  |
| CC(C)C[C@H]1C(=O)N[C@@H](CCC(N)=O)C(=O)N[C@@H](CCCNC(=N)N)C(=O)N[C@@H](Cc2ccccc2)C(=O)N[C@@H](C(C)C)C(=O)N[C@@H](CCC(=O)O)C(=O)N[C@@H](C)C(=O)NCC(=O)N1C (cyclo(AG[NMeL]QRFVE)) |  | inactive |
| CC(C)[C@@H]1NC(=O)[C@H](CCCNC(=N)N)NC(=O)[C@H](CO)NC(=O)[C@H](CCC(N)=O)NC(=O)[C@H](Cc2ccc(O)cc2)NC(=O)[C@H](CCCNC(=N)N)NC(=O)[C@H](C)NC(=O)[C@H](CCC(=O)O)NC1=O (cyclo(ARYQSRVE)) | 2000 |  |
